Measured values as given in patent US9394282B2, “Pyrazole carboxamides as Janus kinase inhibitors” (Merck Sharp & Dohme Corp., priority 2011, dated 2016).

Key:
JAK1 = JAK1 (Homo sapiens (Human), UniProt P23458); test: Jak biochemical HTRF assay, JAK1; details: recombinant purified GST-tagged catalytic domain; HTRF format; [ATP] 31.8 μM
Description: (§1) Jak Biochemical HTRF Assay Protocol
(§2) Subsequent reagent additions employed an Agilent Bravo.

JAK2 = JAK2 (Homo sapiens (Human), UniProt O60674); test: Jak biochemical HTRF assay, JAK2; details: recombinant purified GST-tagged catalytic domain, HTRF format
Description: as §1, §2

Chain of JAK2 (O60674 849-1124): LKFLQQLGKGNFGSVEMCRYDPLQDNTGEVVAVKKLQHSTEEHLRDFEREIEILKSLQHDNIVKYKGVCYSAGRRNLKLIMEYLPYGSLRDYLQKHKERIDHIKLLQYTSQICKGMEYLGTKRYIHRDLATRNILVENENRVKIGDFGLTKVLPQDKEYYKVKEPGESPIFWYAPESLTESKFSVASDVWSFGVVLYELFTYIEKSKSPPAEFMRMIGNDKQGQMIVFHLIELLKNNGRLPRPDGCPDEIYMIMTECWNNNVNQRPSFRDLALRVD
Chain of JAK1 (P23458 875-1153): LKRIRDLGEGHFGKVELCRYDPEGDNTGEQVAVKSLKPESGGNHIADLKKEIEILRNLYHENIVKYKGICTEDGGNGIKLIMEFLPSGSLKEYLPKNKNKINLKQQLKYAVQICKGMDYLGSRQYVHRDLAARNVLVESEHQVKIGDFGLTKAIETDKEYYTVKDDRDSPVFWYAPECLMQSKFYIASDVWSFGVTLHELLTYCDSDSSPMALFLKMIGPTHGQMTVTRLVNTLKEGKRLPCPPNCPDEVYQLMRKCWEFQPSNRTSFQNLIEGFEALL

SMILES | IC50 (JAK1) [nM] | IC50 (JAK2; [ATP] […]) [nM] | IC50 (JAK2; [ATP] 8.5 μM) [nM]
CC(C)(C)OC(=O)N1CC[C@H](n2cc(C(N)=O)c(Nc3ccccc3)n2)[C@H](C#N)C1 (mixture of isomers) [Example 1-1, tert-butyl(3R,4S and 3S,4R)-4-[4-(aminocarbonyl)-3-anilino-1H-pyrazol-1-yl]-3-cyanopiperidine-1-carboxylate] | 108 | 1270 | –
CC(C)(C)OC(=O)N1CC[C@@H](n2cc(C(N)=O)c(Nc3ccccc3)n2)[C@H](C#N)C1 (mixture of isomers) [Example 1-2, tert-butyl(3S,4S and 3R,4R)-4-[4-(aminocarbonyl)-3-anilino-1H-pyrazol-1-yl]-3-cyanopiperidine-1-carboxylate] | 24 | 496 | –
CC(C)(COC(=O)N1CC[C@@H](C#N)[C@H](n2cc(C(N)=O)c(Nc3ccc(F)cc3)n2)C1)n1cccn1 (mixture of isomers) [Example 5-92, 2-methyl-2-(1H-pyrazol-1-yl)propyl (3S,4Rand 3R, 4S)-3-{4-carbamoyl-3-[(4-fluorophenyl)amino]-1H-pyrazol-1-yl}-4-cyanopiperidine-1-carboxylate] | 27 | 383 | –
C[C@@H]1C[C@H](C#N)[C@@H](n2cc(C(N)=O)c(Nc3ccnc(F)c3)n2)CO1 (mixture of isomers) [Example 10-1, 1-((3R,4S,6R and 3S,4R,6S)-4-Cyano-6-methyltetrahydro-2H-pyran-3-yl)-3-((2-fluoropyridin-4-yl)amino)-1H-pyrazole-4-carboxamide] | 5 | 25 | –
C[C@H]1OCC[C@@H](C#N)[C@@H]1n1cc(C(N)=O)c(Nc2ccnc(F)c2)n1 (mixture of isomers) [Example 10-2, 1-((2S,3R,4S and 2R,3S,4R)-4-cyano-2-methyltetrahydro-2H-pyran-3-yl)-3-((2-fluoropyridin-4-yl)amino)-1H-pyrazole-4-carboxamide] | 29 | 206 | –
N#C[C@H]1CCNCC1n1cc(C(N)=O)c(Nc2ccc(F)cc2)n1 (mixture of isomers) [Example 3-1, 1-[(3R,4S and 3S,4R)-4-cyanopiperidin-3-yl]-3-[(4-fluorophenyl)amino]-1H-pyrazole-4-carboxamide] | 13 | – | 125
N#C[C@@H]1CNCC[C@H]1n1cc(C(N)=O)c(Nc2ccc(F)cc2)n1 (racemic) [Example 3-2, 1-[(3R,4R and 3S,4S)-3-cyanopiperidin-4-yl]-3-[(4-fluorophenyl)amino]-1H-pyrazole-4-carboxamide] | 7 | – | 81
N#C[C@@H]1CNCCC1n1cc(C(N)=O)c(Nc2ccc(F)cc2)n1 (mixture of isomers) [Example 3-3, 1-[(3R,4R and 3S,4S)-3-cyanopiperidin-4-yl]-3-[(4-fluorophenyl)amino]-1H-pyrazole-4-carboxamide] | 102 | – | 628
CC(OC(=O)N1CC[C@@H](n2cc(C(N)=O)c(Nc3ccc(F)cc3)n2)[C@H](C#N)C1)C(F)(F)F (mixture of isomers) [Example 5-1, 2,2,2-Trifluoro-1-methylethyl(3R,4R and 3S,4S)-4-{4-carbamoyl-3-[(4-fluorophenyl)amino]-1H-pyrazol-1-yl}-3-cyanopiperidine-1-carboxylate] | 15 | – | 387
COCCOC(=O)N1CC[C@@H](C#N)C(n2cc(C(N)=O)c(Nc3ccc(F)cc3)n2)C1 (mixture of isomers) [Example 5-83, 2-methoxyethyl (3S,4R and 3R,4S)-3-{4-carbamoyl-3-[(4-fluorophenyl)amino]-1H-pyrazol-1-yl}-4-cyanopiperidine-1-carboxylate] | – | – | 120
CC1(COC(=O)N2CC[C@@H](C#N)C(n3cc(C(N)=O)c(Nc4ccc(F)cc4)n3)C2)COC1 (mixture of isomers) [Example 5-90, (3-methyloxetan-3-yl)methyl (3S,4R and 3R,4S)-3-{4-carbamoyl-3-[(4-fluorophenyl)amino]-1H-pyrazol-1-yl}-4-cyanopiperidine-1-carboxylate] | – | – | 96
N#C[C@@H]1CCN(Cc2cc(F)ccn2)C[C@H]1n1cc(C(N)=O)c(Nc2ccc(F)cc2)n1 (racemic) [Example 6-7, 1-{(3S,4R and 3R,4S)-4-cyano-1-[(4-fluoropyridin-2-yl)methyl]piperidin-3-yl}-3-[(4-fluorophenyl)amino]-1H-pyrazole-4-carboxamide] | – | – | 47
N#C[C@@H]1CN(Cc2ncco2)CC[C@H]1n1cc(C(N)=O)c(Nc2ccc(F)cc2)n1 (racemic) [Example 6-29, 1-[(3R,4R and 3S,4S)-3-cyano-1-(1,3-oxazol-2-ylmethyl)piperidin-4-yl]-3-[(4-fluorophenyl)amino]-1H-pyrazole-4-carboxamide] | – | – | 47
N#C[C@H]1CCOC[C@@H]1n1cc(C(N)=O)c(Nc2ccc(Cl)nc2)n1 (single isomer, unassigned) [Example 9-27, 3-[(6-chloropyridin-3-yl)amino]-1-[(3R,4S or 3S,4R)-4-cyanotetrahydro-2H-pyran-3-yl]-1H-pyrazole-4-carboxamide] | – | – | 134
N#C[C@H]1CCOC[C@@H]1n1cc(C(N)=O)c(Nc2ccc(C(F)F)nc2)n1 (single isomer, unassigned) [Example 9-32, 1-[(3R,4S or 3S,4R)-4-cyanotetrahydro-2H-pyran-3-yl]-3-{[6-(difluoromethyl)pyridin-3-yl]amino}-1H-pyrazole-4-carboxamide] | – | – | 134
N#C[C@@H]1CS(=O)(=O)C[C@H]1n1cc(C(N)=O)c(Nc2ccc(F)cc2)n1 (single isomer, unassigned) [Example 12-1, 1-((3S,4R or 3R,4S)-4-Cyano-1,1-dioxidotetrahydrothiophen-3-yl)-3-((4-fluorophenyl)amino)-1H-pyrazole-4-carboxamide] | – | > 1500 | –
N#C[C@@H]1CS(=O)(=O)C[C@H]1n1cc(C(N)=O)c(Nc2ccc(F)cc2)n1 (single isomer, unassigned) [Example 12-2, 1-((3S,4R or 3R,4S)-4-Cyano-1,1-dioxidotetrahydrothiophen-3-yl)-3-((4-fluorophenyl)amino)-1H-pyrazole-4-carboxamide] | – | 16 | –

More lines, now with the values ahead:

IC50 (JAK1) [nM] | IC50 (JAK2; [ATP] […]) [nM] | IC50 (JAK2; [ATP] 8.5 μM) [nM] | SMILES
5 | – | 41 | CC(C)(C)OC(=O)N1CC[C@H](C#N)C(n2cc(C(N)=O)c(Nc3ccccc3)n2)C1 (mixture of isomers) [Example 1-3, tert-butyl(3R,4S and 3S,4R)-3-[4-(aminocarbonyl)-3-anilino-1H-pyrazol-1-yl]-4-cyanopiperidine-1-carboxylate]
6 | – | 39 | CC(C)(C)OC(=O)N1CC[C@H](C#N)C(n2cc(C(N)=O)c(Nc3ccc(F)cc3)n2)C1 (mixture of isomers) [Example 2-1, tert-Butyl(3R,4S and 3S,4R)-3-{4-carbamoyl-3-[(4-fluorophenyl)amino]-1H-pyrazol-1-yl}-4-cyanopiperidine-1-carboxylate]
– | – | 33 | N#C[C@@H]1CCN(CC2CCC2)C[C@H]1n1cc(C(N)=O)c(Nc2ccc(F)cc2)n1 (racemic) [Example 6-12, 1-[(3S,4R and 3R,4S)-4-cyano-1-(cyclobutylmethyl)piperidin-3-yl]-3-[(4-fluorophenyl)amino]-1H-pyrazole-4-carboxamide]
– | – | 11 | CCn1ccnc1CN1CC[C@@H](C#N)[C@H](n2cc(C(N)=O)c(Nc3ccc(F)cc3)n2)C1 (racemic) [Example 6-19, 1-{(3S,4R and 3R,4S)-4-cyano-1-[(1-ethyl-1H-imidazol-2-yl)methyl]piperidin-3-yl}-3-[(4-fluorophenyl)amino]-1H-pyrazole-4-carboxamide]
– | – | 37 | N#C[C@@H]1CN(Cc2cscn2)CC[C@H]1n1cc(C(N)=O)c(Nc2ccc(F)cc2)n1 (racemic) [Example 6-27, 1-[(3R,4R and 3S,4S)-3-cyano-1-(1,3-thiazol-4-ylmethyl)piperidin-4-yl]-3-[(4-fluorophenyl)amino]-1H-pyrazole-4-carboxamide]
– | – | 32 | N#C[C@H]1CS(=O)(=O)CC1n1cc(C(N)=O)c(Nc2ccc(F)cc2)n1 (mixture of isomers) [Example 8-5, 1-((3S,4S and 3R,4R)-4-cyano-1,1-dioxidotetrahydrothiophen-3-yl)-3-((4-fluorophenyl)amino)-1H-pyrazole-4-carboxamide]
– | – | 24 | N#C[C@@H]1CS(=O)(=O)CC1n1cc(C(N)=O)c(Nc2ccc(F)cc2)n1 (mixture of isomers) [Example 8-6, 1-((3S,4R and 3R,4S)-4-cyano-1,1-dioxidotetrahydrothiophen-3-yl)-3-((4-fluorophenyl)amino)-1H-pyrazole-4-carboxamide]
– | – | 15 | N#C[C@@H]1CS(=O)(=O)CC1n1cc(C(N)=O)c(Nc2ccc(S(=O)(=O)C(F)(F)F)cc2)n1 (mixture of isomers) [Example 8-7, 1-((3S,4R and 3R,4S)-4-cyano-1,1-dioxidotetrahydrothiophen-3-yl)-3-((4-((trifluoromethyl)sulfonyl)phenyl)amino)-1H-pyrazole-4-carboxamide]
– | – | 4 | N#C[C@@H]1CCOC[C@H]1n1cc(C(N)=O)c(Nc2ccc(Cl)nc2)n1 (single isomer, unassigned) [Example 9-28, 3-[(6-chloropyridin-3-yl)amino]-1-[(3S,4R or 3R,4S)-4-cyanotetrahydro-2H-pyran-3-yl]-1H-pyrazole-4-carboxamide]
– | – | 3 | N#C[C@@H]1CCOC[C@H]1n1cc(C(N)=O)c(Nc2ccc(C(F)F)nc2)n1 (single isomer, unassigned) [Example 9-33, 1-[(3S,4R or 3R,4S)-4-cyanotetrahydro-2H-pyran-3-yl]-3-{[6-(difluoromethyl)pyridin-3-yl]amino}-1H-pyrazole-4-carboxamide]
– | – | 0.2 | CN(C)C(=O)c1ccc(Nc2nn([C@H]3COCC[C@@H]3C#N)cc2C(N)=O)cc1 (single isomer, unassigned) [Example 9-34, 1-[(3R,4S or 3S,4R)-4-cyanotetrahydro-2H-pyran-3-yl]-3-{[4-(dimethylcarbamoyl)phenyl]amino}-1H-pyrazole-4-carboxamide]
